Data: paper PMC7418559, “Synthesis and SAR of Tetracyclic Inhibitors of Protein Kinase CK2 Derived from Furocarbazole W16” (Chemmedchem, 2020)
Where two headings read alike, the source gives them in different places. Blank lines part the entries; values can stand above or below the compound they belong to.

Key:
holoenzyme CK2α2β2 = molecular target: T1, holoenzyme CK2α2β2 (Homo sapiens, UniProt P68400); experiment: Capillary electrophoresis (CE) assay, enzyme inhibition of the holoenzyme; assay type: biochemical; settings: for inhibition at 10 µM: read-out: Inhibition (%) of CK2α2β2
T1 construct: made in house; host or cells: E. coli BL21(DE3)
Method: (§1) In this assay, the decapeptide […], a known class I substrate suitable for assaying the kinase activity of both the CK2 holoenzyme and the catalytically active CK2 subunits,50, 58 was reacted with ATP in the presence of enzyme, which transfers a phosphate group to Ser7 of the decapeptide. Due to the additional negative charge of the phosphate group, the decapeptide and the phosphorylated decapeptide can be separated by CE.
Enzymatic activities with or without inhibitors were determined for the holoenzyme (CK2α2β2), the CK2α subunit, and the mutated CK2α′ ^C336S subunit by a capillary electrophoresis assay as described before.59 For this purpose, CK2α as well as (CK2α2β2) holoenzyme were purified after recombinant expression in E. coli BL21(DE3) and purified according the protocol of Grankowski et al.62 The mutated CK2α′ ^C336S subunit was purified by Ni‐NTA affinity chromatography using an N‐terminally attached His6 tag. […] For both CK2α subunits an assay buffer containing 100 mM NaCl instead of 60 mM NaCl as for the holoenzyme, and 20 mM MgCl2 instead of 10 mM MgCl2 was applied. For the holoenzyme, 1 μg was added, whereas for CK2α and the mutated CK2α′ ^C336S subunit 0.25 μg was added each. For each compound inhibition was determined three times independently at an initial concentration of 10 μM and the mean value and the standard deviation (SD) were calculated.

CK2α subunit = molecular target: T2, CK2α subunit (Homo sapiens, UniProt P68400); experiment: Capillary electrophoresis (CE) assay, enzyme inhibition of the CK2α subunit; assay type: biochemical; settings: for Inhibition (%) of CK2α: c=10 μM, CE assay, mean±SD of three experiments, n.s.=not significant; for inhibition at 10 µM: read-out: Inhibition (%) of CK2α
T2 construct: made in house; host or cells: E. coli BL21(DE3)
Text: as §1, with “CE. […] The data on the inhibition of the kinase activities of CK2α2β2, CK2α subunit and mutated CK2α’ ^C336S subunit are summarized in Table 1.” for “CE.”
(§2) Enzymatic activities with or without inhibitors were determined for the holoenzyme (CK2α2β2), the CK2α subunit, and the mutated CK2α′ ^C336S subunit by a capillary electrophoresis assay as described before.59 For this purpose, CK2α as well as (CK2α2β2) holoenzyme were purified after recombinant expression in E. coli BL21(DE3) and purified according the protocol of Grankowski et al.62 The mutated CK2α′ ^C336S subunit was purified by Ni‐NTA affinity chromatography using an N‐terminally attached His6 tag. Successful purification was controlled by SDS‐PAGE. Enzymatic activity was determined in the presence of 60 μM ATP and 114 μM of the substrate peptide […]. For both CK2α subunits an assay buffer containing 100 mM NaCl instead of 60 mM NaCl as for the holoenzyme, and 20 mM MgCl2 instead of 10 mM MgCl2 was applied. For the holoenzyme, 1 μg was added, whereas for CK2α and the mutated CK2α′ ^C336S subunit 0.25 μg was added each. For each compound inhibition was determined three times independently at an initial concentration of 10 μM and the mean value and the standard deviation (SD) were calculated.

[1] = molecular target: T3, mutated CK2α’ ^C336S subunit (Homo sapiens, UniProt P19784, C336S); experiment: Capillary electrophoresis (CE) assay, enzyme inhibition of the mutated CK2α′ C336S subunit; assay type: biochemical; settings: for Inhibition (%) of CK2α’ ^C336S: c=10 μM, CE assay, mean±SD of three experiments, n.s.=not significant; for inhibition at 10 µM: read-out: Inhibition (%) of CK2α’ ^C336S
T3 construct: His6 (N); made in house
T3 sequence (P19784 1-350 C336S): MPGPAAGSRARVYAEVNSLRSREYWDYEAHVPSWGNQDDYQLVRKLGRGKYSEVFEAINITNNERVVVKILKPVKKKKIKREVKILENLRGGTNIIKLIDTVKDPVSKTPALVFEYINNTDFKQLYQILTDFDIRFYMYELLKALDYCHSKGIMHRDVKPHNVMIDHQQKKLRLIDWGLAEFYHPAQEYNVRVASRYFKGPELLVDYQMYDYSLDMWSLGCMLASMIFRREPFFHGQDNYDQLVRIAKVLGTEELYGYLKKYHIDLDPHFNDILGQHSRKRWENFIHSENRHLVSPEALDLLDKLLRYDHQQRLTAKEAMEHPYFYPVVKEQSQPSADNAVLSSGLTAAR
Text: as §1, with “CE. […] The data on the inhibition of the kinase activities of CK2α2β2, CK2α subunit and mutated CK2α’ ^C336S subunit are summarized in Table 1.” for “CE.”
as §2

[2] = molecular target: T4, CK2α/CK2β interaction (CK2α^1−335 / fluorescently labeled CK2β^1−193) (Homo sapiens, UniProt P68400); settings: for Inhibition of CK2α/CK2β2 interaction K i: MST, global fit with K D = […] nM, mean±SEM of 2–4 experiments, prec.=precipitation, n.s.=not significant
T4 sequence (P68400 1-335): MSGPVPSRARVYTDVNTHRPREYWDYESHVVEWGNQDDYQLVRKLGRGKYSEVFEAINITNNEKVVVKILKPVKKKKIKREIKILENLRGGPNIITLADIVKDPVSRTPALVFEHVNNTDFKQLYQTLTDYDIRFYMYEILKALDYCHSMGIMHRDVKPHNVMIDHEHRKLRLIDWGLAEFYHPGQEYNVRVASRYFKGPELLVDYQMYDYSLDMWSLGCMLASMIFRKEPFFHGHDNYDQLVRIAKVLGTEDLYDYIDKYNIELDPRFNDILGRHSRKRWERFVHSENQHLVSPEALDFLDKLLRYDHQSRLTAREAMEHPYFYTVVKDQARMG
Method: The inhibition of the interaction between the CK2α and the CK2β subunit was determined in a microscale thermophoresis (MST) assay.
To quantify the protein‐protein interaction in the presence of potential inhibitors, the investigated compounds were first dissolved in DMSO (2‐10 mM) and then 50‐fold diluted in ITC buffer (25 mM Tris‐HCl, 500 mM NaCl, pH 8.5) containing 0.1 % (v/v) Tween 20 to concentrations of either 40, 100 or 200 μM in 2 % (v/v) DMSO, i. e. twice the final concentrations: 20, 50 and 100 μM, respectively, in 1 % (v/v) DMSO, 0.05 % (v/v) Tween 20. […] MST traces were recorded at room temperature using a Nanotemper Monolith™ NT.115 Series Instrument with Monolith™ NT.115 standard treated capillaries and normalized to initial fluorescence (MO.Affinity Analysis, Nanotemper). […] Next, the statistical significance of the shift from K D to K D’ was determined for each compound by means of an unpaired Student's t test (Table S4). […] Data was analyzed and statistically evaluated with the program GraphPad Prism v.5.04 for Windows (GraphPad Software, San Diego, CA, USA).
a Shown are mean  SEM values of KD and KD’ for n separate experiments.
significant (n. s.), P > 0.05; *, P ≤ 0.05; **, P ≤ 0.01; ***, P ≤ 0.001; ****, P ≤ 0.0001. prec.

[3] = c=10 μM, CE assay, mean±SD of three experiments, n.s.=not significant

T2 sequence (P68400 whole entry): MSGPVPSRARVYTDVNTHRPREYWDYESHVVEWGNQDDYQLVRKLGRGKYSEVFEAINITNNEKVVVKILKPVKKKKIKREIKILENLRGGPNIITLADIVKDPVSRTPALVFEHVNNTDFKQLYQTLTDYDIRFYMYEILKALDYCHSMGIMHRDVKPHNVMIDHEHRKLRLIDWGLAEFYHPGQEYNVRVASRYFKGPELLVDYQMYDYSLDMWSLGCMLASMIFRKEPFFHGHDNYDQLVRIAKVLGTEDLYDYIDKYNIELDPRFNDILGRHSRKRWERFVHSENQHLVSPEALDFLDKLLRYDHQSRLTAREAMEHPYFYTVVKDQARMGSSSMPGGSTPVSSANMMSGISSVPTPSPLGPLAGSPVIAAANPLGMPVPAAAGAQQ
T1 sequence (P68400 whole entry): as above

inhibition at 10 µM (holoenzyme CK2α2β2; [3]): 31 ± 9%
Inhibition (%) of CK2α (CK2α subunit): n.s.
Inhibition (%) of CK2α’ ^C336S [1]: n.s.
Ki [2]: 7.2 ± 1.5 µM
SMILES: COc1cc([C@H]2c3c([nH]c4ccccc34)[C@@H](C(=O)N3C(=O)OC[C@H]3Cc3ccccc3)[C@H]3C(=O)N(C)C(=O)[C@@H]23)cc(OC)c1OC [(+)‐10 b, (3aS,4S,10S,10aS)‐4‐{[(R)‐4‐Benzyl‐2‐oxo‐1,3‐oxazolidin‐3‐yl]carbonyl}‐2‐methyl‐10‐(3,4,5‐trimethoxyphenyl)‐4,5,10,10a‐tetrahydropyrrolo[3,4‐b]carbazole‐1,3(2H,3aH)‐dione]

Inhibition (%) of CK2α2β2 (holoenzyme CK2α2β2; [3]): n.s.
Inhibition (%) of CK2α (CK2α subunit): n.s.
Inhibition (%) of CK2α’ ^C336S [1]: n.s.
Ki [2]: 4.4 ± 0.3 µM
SMILES: COc1cc([C@@H]2c3c([nH]c4ccccc34)[C@H](C(=O)N3C(=O)OC[C@@H]3Cc3ccccc3)[C@@H]3C(=O)NC(=O)[C@H]23)cc(OC)c1OC [(−)‐9 b]

inhibition at 10 µM (holoenzyme CK2α2β2; [3]): < 50%
Inhibition of CK2α/CK2β2 interaction K i [2]: prec.
SMILES: COc1cc([C@@H]2c3c([nH]c4ccccc34)[C@@H](C(=O)N3C(=O)OC[C@H]3Cc3ccccc3)[C@@H]3C(=O)NC(=O)[C@H]23)cc(OC)c1OC [(‐)‐9 c]

SMILES: COc1cc([C@@H]2c3c([nH]c4ccccc34)[C@H](C(=O)N3C(=O)OC[C@H]3Cc3ccccc3)[C@@H]3C(=O)OC(=O)[C@H]23)cc(OC)c1OC [(−)‐3 a]
inhibition at 10 µM (holoenzyme CK2α2β2): 89 ± 3%
inhibition at 10 µM (CK2α subunit): 73 ± 4%
inhibition at 10 µM [1]: 93 ± 2%

inhibition at 10 µM (holoenzyme CK2α2β2; [3]): < 50%
Inhibition of CK2α/CK2β2 interaction K i [2]: n.s.
SMILES: COc1cc([C@@H]2c3c([nH]c4ccccc34)[C@@H](C(=O)N[C@H](CO)Cc3ccccc3)[C@@H]3C(=O)NC(=O)[C@H]23)cc(OC)c1OC [(−)‐14 d]

inhibition at 10 µM (holoenzyme CK2α2β2; [3]): < 50%
Inhibition of CK2α/CK2β2 interaction K i [2]: n.s.
SMILES: COc1cc([C@H]2c3c([nH]c4ccccc34)[C@H](C(=O)N[C@@H](CO)Cc3ccccc3)[C@H]3C(=O)NC(=O)[C@@H]23)cc(OC)c1OC [(+)‐14 d]

inhibition at 10 µM (holoenzyme CK2α2β2; [3]): < 50%
Inhibition of CK2α/CK2β2 interaction K i [2]: prec.
SMILES: COc1cc([C@H]2c3c([nH]c4ccccc34)[C@H](C(=O)N3C(=O)OC[C@@H]3Cc3ccccc3)[C@H]3C(=O)NC(=O)[C@@H]23)cc(OC)c1OC [(+)‐9 c]

SMILES: COc1cc([C@H]2c3c([nH]c4ccccc34)[C@H](C(=O)N3C(=O)OC[C@@H]3Cc3ccccc3)[C@H]3C(=O)OC(=O)[C@@H]23)cc(OC)c1OC [(+)‐3 c, (3aR,4R,10S,10aS)‐4‐{[(S)‐4‐Benzyl‐2‐oxo‐1,3‐oxazolidin‐3‐yl]carbonyl}‐10‐(3,4,5‐trimethoxyphenyl)‐4,5,10,10a‐tetrahydrofuro[3,4‐b]carbazole‐1,3(3aH)‐dione]
inhibition at 10 µM (holoenzyme CK2α2β2): 66 ± 16%
inhibition at 10 µM (CK2α subunit): 65 ± 4%
inhibition at 10 µM [1]: 52 ± 38%

inhibition at 10 µM (holoenzyme CK2α2β2; [3]): < 50%
Inhibition of CK2α/CK2β2 interaction K i [2]: n.s.
SMILES: COc1cc([C@H]2c3c([nH]c4ccccc34)[C@H](C(=O)N3C(=O)OC[C@H]3Cc3ccccc3)[C@H]3C(=O)NC(=O)[C@@H]23)cc(OC)c1OC [(+)‐9 d]

inhibition at 10 µM (holoenzyme CK2α2β2; [3]): < 50%
Inhibition of CK2α/CK2β2 interaction K i [2]: n.s.
SMILES: COc1cc([C@H]2c3c([nH]c4ccccc34)[C@H](C(=O)N[C@H](CO)Cc3ccccc3)[C@H]3C(=O)NC(=O)[C@@H]23)cc(OC)c1OC [(+)‐14 c]

SMILES: COc1cc([C@@H]2c3c([nH]c4ccccc34)[C@@H](C(=O)N3C(=O)OC[C@@H]3Cc3ccccc3)[C@@H]3C(=O)OC(=O)[C@H]23)cc(OC)c1OC [(+)‐3 d, (3aS,4S,10R,10aR)‐4‐{[(S)‐4‐Benzyl‐2‐oxo‐1,3‐oxazolidin‐3‐yl]carbonyl}‐10‐(3,4,5‐trimethoxyphenyl)‐4,5,10,10a‐tetrahydrofuro[3,4‐b]carbazole‐1,3(3aH)‐dione]
inhibition at 10 µM (holoenzyme CK2α2β2): 92 ± 7%
inhibition at 10 µM (CK2α subunit): 43 ± 13%
Inhibition (%) of CK2α’ ^C336S [1]: n.s.

inhibition at 10 µM (holoenzyme CK2α2β2; [3]): < 50%
Inhibition of CK2α/CK2β2 interaction K i [2]: n.s.
SMILES: COc1cc([C@@H]2c3c([nH]c4ccccc34)[C@@H](C(=O)N3C(=O)OC[C@@H]3Cc3ccccc3)[C@@H]3C(=O)NC(=O)[C@H]23)cc(OC)c1OC [(−)‐9 d]
